Key:
[1] = system: human A549 lung carcinoma cells; assay: genistein suppressor screen (BrdU cytoblot with 100 μM genistein challenge); format: cell-based; settings: A549 cells challenged with 100 μM genistein
Procedure: Both plates of stock solutions (10) were used in phenotypic assays. In particular, we exposed living human A549 lung carcinoma cells to 708 (324+384) stock solutions under two different assay conditions. These experiments were performed with a hand-held pin-transfer tool, though our complete technology platform includes a pin-transfer robot capable of mapping into multiple microtiter plates. In certain embodiments, cultured cells exposed to 5-bromodeoxyuridine (BrdU) will incorporate this base analog into their DNA when actively dividing, and this incorporation can be detected by cytoblot assay using antibodies directed against BrdU (B. R. Stockwell, S. J. Haggarty, S. L. Schreiber, High-throughput screening of small molecules in miniaturized mammalian cell-based assays involving post-translational modifications, Chem. Biol. 6 (1999) 71–83). […] Thus, ‘hits’ in the former assay are detected as a loss of signal in a high-signal array (FIG. 14(a)), while ‘hits’ in the latter assay are detected as a gain of signal in a lowsignal array (FIG. 14(b)). […]
For each of these assays, aliquots from each of the two plates (10) were exposed to cells in duplicate to ensure the fidelity of the results. Compounds were scored as ‘hits’ only if they scored strongly in both replicates of a given experiment. […]

human Eg5 = biological target: T1, human Eg5 (Homo sapiens, UniProt P52732); assay: steady-state Eg5 ATPase assay (NADH-coupled); format: biochemical; settings: library screen
T1 construct: 1 μM microtubules and 40 nM Eg5-367H; His6 (C); made in house; host or cells: pRSETa backbone
T1 sequence (P52732 1-367): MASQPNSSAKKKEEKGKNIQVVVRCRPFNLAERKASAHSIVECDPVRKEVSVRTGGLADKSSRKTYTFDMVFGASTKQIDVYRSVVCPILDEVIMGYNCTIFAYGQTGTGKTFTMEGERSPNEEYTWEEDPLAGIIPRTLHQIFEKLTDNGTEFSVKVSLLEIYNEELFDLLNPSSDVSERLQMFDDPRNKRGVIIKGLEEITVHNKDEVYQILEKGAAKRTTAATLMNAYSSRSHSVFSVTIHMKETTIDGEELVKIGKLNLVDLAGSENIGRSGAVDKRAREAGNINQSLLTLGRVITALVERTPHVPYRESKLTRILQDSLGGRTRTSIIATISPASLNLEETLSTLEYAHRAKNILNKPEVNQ
Description: Coding regions for the expression of C-terminally His6-tagged constructs of human Eg5 were generated by polymerase chain reaction using a pBluescript template containing full length human Eg5 [23] and the following primers: a common N-terminal primer 5′-[…] and specific C-teminal primers; 5′-[…] (hEg5–367H), 5′-[…] (hEg5–405H), 5′-[…] (hEg5–437H). The PCR products were ligated into a pRSETa backbone. Eg5 protein constructs were expressed and purified as described previously [Woehike, G., Ruby, A. K., Hart, C. L., Ly, B., Hom-Booher, N. and Vale, R. D. (1997) Microtubule interaction site of the kinesin motor. Cell. 90, 207–216]. […] The concentration of Eg5 was measured using the Edelhoch [Pace, C. […]
We measured the ATPase activity of Eg5 in vitro using an assay that couples the hydrolysis of ATP to the oxidation of NADH [Woehike, G., Ruby, A. K., Hart, C. […] In the assay, the concentration of ATP remains constant however, the decrease in NADH fluorescence is a convenient measure of the amount of ATP turned over. […] Time-points for NADH fluorescence were measured in 384 well black plates (NalgeneNUNC) by a Wallac Victor^2 1420 multilabel counter, umbelliferone filter set (excitation: 355 nm, emission: 420 nm), and the steady-state rate of fluorescence decay was calculated using a linear fit by Microsoft Excel. […]

Row | Eg5 inhibitory activity (human Eg5) | SMILES | BrdU incorporation judged by cytoblot assay [1]
1 |  | O=c1c(-c2ccc(O)cc2)coc2cc(O)cc(O)c12 [genistein, 4′,5,7 trihydroxyisoflavone] | impaired
2 | found to inhibit Eg5 | CCO[C@H]1OC(C(=O)NCc2ccc(F)cc2)=C[C@@H](c2ccccc2)[C@H]1CCCO | 

From US7186709B2, “Dihydropyrancarboxamides and uses thereof” (President and Fellows of Harvard College, priority 2002, dated 2007)
